US10785978B2, “Control and repellency of biting flies, house flies, ticks, ants, fleas, biting midges, cockroaches, spiders and stink bugs” (priority 2012, dated 2020)

Experiments:
Format in all cases: in vivo
sand flies P. papatasi = test: Sand fly bite test on treated human skin with K&D module; conditions: for percent biting, Treatment level 5%: 5% compound in isopropyl alcohol on human skin; for sand flies repelled: at 5%
Experimental: Control against sand flies was determined by the following protocol as generally described in J. Med. Entomol. 43 (6), 1248-1252 (2006). Volunteers wearing short pants were seated. Using a skin-marking template and a washable-ink marker, skin areas represented by 3- by 4-cm floor opening of six cells of a K&D module were outlined on the outer, top and inner thigh position of each leg of the volunteers. The six treated cell rectangles each represented a random block, and each volunteer had three blocks on each of two thighs. All treatments against the sand flies P. papatasi, were pipetted onto a 4- by 5-cm rectangular area (so the area of skin covered by a treatment exceeded the template marks by 0.5 cm in every direction) of the subjects' skin with 55 ul of isopropyl alcohol/treatment containing 10% or 5% compound/ul isopropyl alcohol. Treating a slightly larger area ensured that the areas beneath each K&D module contained only treated skin. Skin treated with isopropyl alcohol alone served as control. In all tests adjacent cells of the K&D module were supplied with ten sand flies. The sand fly charged K&D module was positioned over the treated skin areas and the trap doors of the K&D module above the areas were opened. After a five minute skin exposure the trap doors were closed. The number of sand fly bites was recorded for each cell. The percent biting is the percent compared to the biting for the control which was taken as 100%.

[1] = system: Brown Dog Ticks, Rhipicephalus sanguineus; test: Brown Dog tick repellency on vertical filter paper strips; conditions: for ticks repelled: concentration not given
Experimental: Control against Brown Dog ticks was determined in the following protocol. Strips of filter paper, 1″ by 3″, were placed on a sheet of aluminum foil treated with 1 ml each of the test samples and allowed to dry. The end of each treated strip was stapled to an untreated filter paper strip of the same dimensions. The stapled strips were suspended in a vertical position above a tray, with the treated half attached to a horizontal glass rod by a metal clip. The untreated half was lowered when the strip is vertically positioned. Brown Dog Ticks, Rhipicephalus sanguineus, mixed sexes, were purchased from a supplier. Five replicates of five ticks for each treatment regimen plus five additional replicates for the control were employed. Ticks shipped to the test site were given at least one day to acclimate to “shipping stress” before they are used for testing. Those tick specimens which appeared sluggish or moribund were not used. Suitable ticks were removed from their containers and allowed to quest on the free end of the test strip. Once present on the strip they were watched as they crawled up the strip until they contacted the treated paper. If the tick, once in contact with the treated zone, either turned around, stopped without proceeding further, or dropped off, the tick is classified as repelled. If it continued to crawl onto the treated strip, even after it stopped briefly, that tick was classified as not repelled. A maximum observation time of 1 minute per replicate was allowed for ticks to respond after reaching the treated area, but during the test, if more time was needed, the maximum observation time may have been adjusted at the discretion of the study coordinator. At the end of the observation time, the number of ticks repelled was recorded. Tick behavior was recorded when applicable, such as whether increased number of affected or repelled ticks occurred in successive replicates over time. After the completion of each treatment parameter, the testing chamber was ventilated for five minutes by turning on the exhaust fan and opening the door leading into the chamber. Ticks were used only once. Average number of ticks displaying each behavior category were calculated and compared to the control replicates.

German cockroaches = test: German cockroach repellency, choice of food stations in arena; conditions: 50% in acetone; at 4 hours
Experimental: The efficacy of compounds of this invention to control or repel German cockroaches was illustrated using the following protocol. One food pellet each was placed on a paper square (station) treated with one of the repellent materials. Materials were diluted to 50% in acetone and a straight acetone station was also used. Both stations were placed on the same side of the arena. Cockroaches were starved for 2 days and then released into the arena. They were given a choice to feed on either food pellet. A control arena with an acetone treated station and an untreated station was also used. The distribution of cockroaches within the arena was recorded at 30 minute intervals over 4 hours. Repellency at 4 hours was calculated by the number of cockroaches on the untreated station vs. the total number of cockroaches on the stations.

[2] = system: brown marmorated stink bugs (BMSB); test: Brown marmorated stink bug repellency, treated vs. untreated filter paper arena
Experimental: The two semi-circle filter papers were aligned together to completely cover the bottom of the test arena. Control arenas were also set up in a similar fashion except both were treated with acetone. Five replicates of 5 BMSB were then introduced into both the treated and control arenas. By releasing them in the center of the arena, the BMSB were presented with a choice of treated vs. untreated substrate (or untreated vs. untreated in the control arenas). The repellency of the BMSB was recorded at 24 hours post-treatment.

[3] = five minute exposure, percent of control biting taken as 100%

SMILES	percent biting, Treatment level 5% (sand flies P. papatasi; [3])	percent biting, Treatment level-10% (sand flies P. papatasi; 10% compound in isopropyl alcohol on human skin, five minute exposure, percent of control biting taken as 100%) [%]	sand flies repelled (sand flies P. papatasi) [%]	Mean % repelled ([1]; 7.5% in isopropyl alcohol) [%]	Mean % repelled ([1]; Neat) [%]	ticks repelled [1] [%]	% Repellency 4 hr (German cockroaches) [%]	% Repellency at 24 hours ([2]; 2.5% in isopropyl alcohol) [%]	% Repellency at 24 hours ([2]; 5% in isopropyl alcohol) [%]
CCC(C)=CCCC(C)=CCC1CCCC1=O (centres unmarked) [Methyl apritone, methyl apritone]	9.9%^	0	90.1	100	100	100	100	–	–
CCCCCC1C(=O)CCC1CC(=O)OC (centres unmarked) [Methyl dihydrojasmonate, methyl dihydrojasmonate]	0%	–	100	–	100	100	72.2	74	100
